From EP0745390A2, “Polymeric prodrugs for beta-lactamase and uses thereof” (priority 1995, dated 1996)

Key:
[1] = Toxicity in nude mice (maximum tolerated dose), single intravenous injection
[2] = in mice; cited from earlier work
[3] = test system: H2981 human lung adenocarcinoma cell line; test: In vitro cytotoxicity assay, incorporation of [^3H] thymidine into DNA; type: cell-based; settings: H2981 cells, non-conjugate treated, doxorubicin instead of PEG-AC-Dox (Figure 3)
bL = bL (Enterobacter cloacae, UniProt P05364); type: biochemical; settings: 3-4 independently run experiments
bL, sequence (P05364 21-381): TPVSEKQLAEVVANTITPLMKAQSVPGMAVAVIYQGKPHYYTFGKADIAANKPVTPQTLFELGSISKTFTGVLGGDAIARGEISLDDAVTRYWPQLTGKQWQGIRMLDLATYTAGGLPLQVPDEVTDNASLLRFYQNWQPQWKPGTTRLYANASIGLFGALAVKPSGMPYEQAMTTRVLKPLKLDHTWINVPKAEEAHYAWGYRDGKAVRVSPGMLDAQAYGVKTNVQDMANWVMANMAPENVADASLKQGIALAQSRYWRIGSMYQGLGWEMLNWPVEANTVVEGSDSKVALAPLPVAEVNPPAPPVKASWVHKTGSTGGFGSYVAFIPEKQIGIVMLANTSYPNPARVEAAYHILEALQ

Row | Structure (SMILES) | maximum tolerated dose ([1]; nude mice, single intravenous injection, dose giving < 20% weight loss, no deaths) [µmol/kg body weight] | MTD ([1]; nude, mouse, in vivo, iv) [mg/kg] | initial half life [2] [min] | IC50 [3] [nM] | Vmax (bL; hydrolysis by bL in phosphate buffered saline containing bovine serum albumin) [µmol/mim /mg] | Km (bL; hydrolysis by bL) [µM] | kcat (bL; hydrolysis by bL) [s⁻¹]
1 | COc1cccc2c1C(=O)c1c(O)c3c(c(O)c1C2=O)C[C@@](O)(C(=O)CO)C[C@@H]3O[C@H]1C[C@H](N)[C@H](O)[C@H](C)O1 [doxorubicin] | 13.8 | 8 | 2 | 100 to 200 | – | – | –
2 | COc1cccc2c1C(=O)c1c(O)c3c(c(O)c1C2=O)C[C@@](O)(C(=O)CO)C[C@@H]3O[C@H]1C[C@H](NC(=O)OCC2=C(C(=O)O)N3C(=O)[C@@H](NC(=O)Cc4ccccc4)[C@H]3SC2)[C@H](O)[C@H](C)O1 [C-Dox, 7-phenylacetylcephalosporin doxorubicin] | – | – | – | – | 400 ± 96 | 46 ± 6 | 280 ± 67
